In PubChem BioAssay (NCI):
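GI50: concentration for 50% inhibition of growth. TGI is the concentration that stops growth completely.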

Tests used:
Experiment in all cases: growth of human tumour cells (NCI), 384-well format
[1] = test system: NCI-H226 lung
[2] = test system: HCT-116 colon
[3] = test system: T-47D breast
[4] = test system: OVCAR-8 ovarian
[5] = test system: MDA-MB-231 breast
[6] = test system: SK-MEL-28 melanoma
[7] = test system: U251 glioblastoma
[8] = test system: OVCAR-5 ovarian
[9] = test system: SF-539 CNS
[10] = test system: PC-3 prostate
[11] = test system: HOP-62 NSCLC
[12] = test system: DU-145 prostate
[13] = test system: NCI/ADR-RES ovarian
[14] = test system: NCI-H322M lung
[15] = test system: SK-MEL-2 melanoma
[16] = test system: CAKI-1 renal
[17] = test system: TK-10 renal
[18] = test system: BT-549 breast
[19] = test system: NCI-H23 lung
[20] = test system: SN12C renal
[21] = test system: SNB-19 CNS
[22] = test system: HT29 colon
[23] = test system: HL-60(TB) leukemia
[24] = test system: NCI-H522 lung
[25] = test system: MALME-3M melanoma
[26] = test system: 786-0 renal
[27] = test system: OVCAR-3 ovarian
[28] = test system: LOX IMVI melanoma
[29] = test system: A549 NSCLC
[30] = test system: MOLT-4 leukemia
[31] = test system: HCT-15 colon
[32] = test system: SR leukemia
[33] = test system: RPMI-8226 leukemia
[34] = test system: IGROV1 ovarian
[35] = test system: HCC-2998 colon
[36] = test system: KM12 colon
[37] = test system: OVCAR-4 ovarian
[38] = test system: HOP-92 NSCLC
[39] = test system: UACC-62 melanoma
[40] = test system: M14 melanoma
[41] = test system: UO-31 renal
[42] = test system: MDA-MB-435 melanoma
[43] = test system: ACHN renal
[44] = test system: A498 renal
[45] = test system: SK-MEL-5 melanoma
[46] = test system: CCRF-CEM leukemia
[47] = test system: SF-295 CNS
[48] = test system: NCI-H460 NSCLC
[49] = test system: COLO 205 colon
[50] = test system: K-562 leukemia
[51] = test system: MCF7 breast
[52] = test system: MDA-MB-468 breast
[53] = test system: SK-OV-3 ovarian
[54] = test system: RXF 393 renal
[55] = test system: SW-620 colon
[56] = test system: UACC-257 melanoma
[57] = test system: SF-268 CNS
[58] = test system: SNB-75 CNS
[59] = test system: HS 578T breast
[60] = test system: EKVX NSCLC

## C=CCN1CC(=O)N2[C@@H](Cc3ccc(O)cc3F)C(=O)N(Cc3cccc(N4CC(N5CCN(CC)CC5)C4)n3)C[C@@H]2N1C(=O)NCc1ccccc1
[1]
  GI50: 28.4 nM
  TGI: 372 nM
[2]
  GI50: 23.9 nM
  TGI: 296 nM
[3]
  GI50: 27.2 nM
  TGI: 193 nM
[4]
  GI50: 23.8 nM
  TGI: 282 nM
[5]
  GI50: 10.8 nM
  TGI: 34.9 nM
[6]
  GI50: 25.9 nM
  TGI: 77 nM
[7]
  GI50: 23.6 nM
  TGI: 88.8 nM
[8]
  GI50: 20.4 nM
  TGI: 66.1 nM
[9]
  GI50: 21.5 nM
  TGI: 71.9 nM
[10]
  GI50: 27.8 nM
  TGI: 91.1 nM
[11]
  GI50: 32.3 nM
  TGI: 190 nM
[12]
  GI50: 59.4 nM
  TGI: 23000 nM
[13]
  GI50: 3130 nM
  TGI: 23600 nM
[14]
  GI50: 54.6 nM
  TGI: 2210 nM
[15]
  GI50: 20.6 nM
  TGI: 83.1 nM
[16]
  GI50: 30 nM
  TGI: 105 nM
[17]
  GI50: 52.6 nM
  TGI: 637 nM
[18]
  GI50: 27.6 nM
  TGI: 98.4 nM
[19]
  GI50: 24 nM
  TGI: 91.2 nM
[20]
  GI50: 47.4 nM
  TGI: 18600 nM
[21]
  GI50: 25 nM
  TGI: 226 nM
[22]
  GI50: 52.1 nM
  TGI: 12900 nM
[23]
  GI50: 57.8 nM
  TGI: 293 nM
[24]
  GI50: 16.2 nM
  TGI: 82.7 nM
[25]
  GI50: 23 nM
  TGI: 63.1 nM
[26]
  GI50: 35.9 nM
  TGI: 680 nM
[27]
  GI50: 24.4 nM
  TGI: 84.6 nM
[28]
  GI50: 33.7 nM
  TGI: 98.7 nM
[29]
  GI50: 31.5 nM
  TGI: 3130 nM
[30]
  GI50: 10.4 nM
  TGI: 22.6 nM
[31]
  GI50: 315 nM
  TGI: 3760 nM
[32]
  GI50: 26.2 nM
  TGI: 58.4 nM
[33]
  GI50: 17.8 nM
  TGI: 33.9 nM
[34]
  GI50: 23.1 nM
  TGI: 59.9 nM
[35]
  GI50: 41.3 nM
  TGI: 398 nM
[36]
  GI50: 36.8 nM
  TGI: 32300 nM
[37]
  GI50: 23.2 nM
  TGI: 74.1 nM
[38]
  GI50: 13.9 nM
  TGI: 46.4 nM
[39]
  GI50: 21.4 nM
  TGI: 67.5 nM
[40]
  GI50: 32.1 nM
  TGI: 196 nM
[41]
  GI50: 408 nM
  TGI: 3690 nM
[42]
  GI50: 60.8 nM
  TGI: 32400 nM
[43]
  GI50: 231 nM
  TGI: 1990 nM
[44]
  GI50: 35.4 nM
  TGI: 232 nM
[45]
  GI50: 24.3 nM
  TGI: 70.6 nM
[46]
  GI50: 29.8 nM
  TGI: 231 nM
[47]
  GI50: 79.8 nM
  TGI: 528 nM
[48]
  GI50: 21.7 nM
  TGI: 90.4 nM
[49]
  GI50: 19.8 nM
  TGI: 80.3 nM
[50]
  GI50: 35.9 nM
  TGI: 18100 nM
[51]
  GI50: 472 nM
  TGI: 46400 nM
[52]
  GI50: 28.5 nM
  TGI: 87.3 nM
[53]
  GI50: 25.5 nM
  TGI: 68.7 nM
[54]
  GI50: 62.5 nM
  TGI: 593 nM
[55]
  GI50: 84.7 nM
  TGI: > 100000 nM
[56]
  GI50: 50.2 nM
  TGI: 333 nM

## COc1cc2nc(-c3cc(F)ccc3O)nc(N[C@@H]3CNC[C@H]3C(C)(C)O)c2cc1OC
[1]
  GI50: 1400 nM
  TGI: 2760 nM
[2]
  GI50: 1110 nM
  TGI: 2370 nM
[3]
  GI50: 2460 nM
  TGI: 3940 nM
[4]
  GI50: 1690 nM
  TGI: 3090 nM
[5]
  GI50: 1400 nM
  TGI: 2700 nM
[6]
  GI50: 2010 nM
  TGI: 3440 nM
[7]
  GI50: 1860 nM
  TGI: 3280 nM
[8]
  GI50: 1670 nM
  TGI: 3110 nM
[9]
  GI50: 1260 nM
  TGI: 2540 nM
[10]
  GI50: 1560 nM
  TGI: 2920 nM
[11]
  GI50: 1220 nM
  TGI: 2490 nM
[12]
  GI50: 1570 nM
  TGI: 2990 nM
[13]
  GI50: 2240 nM
  TGI: 4990 nM
[57]
  GI50: 434 nM
  TGI: 1620 nM
[14]
  GI50: 1630 nM
  TGI: 3020 nM
[16]
  GI50: 1350 nM
  TGI: 2660 nM
[17]
  GI50: 1630 nM
  TGI: 3050 nM
[18]
  GI50: 1310 nM
  TGI: 2590 nM
[19]
  GI50: 1440 nM
  TGI: 2770 nM
[58]
  GI50: 1250 nM
  TGI: 2510 nM
[20]
  GI50: 1480 nM
  TGI: 2810 nM
[21]
  GI50: 1790 nM
  TGI: 3210 nM
[22]
  GI50: 1650 nM
  TGI: 3060 nM
[23]
  GI50: 1820 nM
  TGI: 3240 nM
[24]
  GI50: 1040 nM
  TGI: 2220 nM
[25]
  GI50: 1600 nM
  TGI: 2960 nM
[26]
  GI50: 1530 nM
  TGI: 2870 nM
[27]
  GI50: 1820 nM
  TGI: 3230 nM
[28]
  GI50: 1390 nM
  TGI: 2710 nM
[29]
  GI50: 1510 nM
  TGI: 2910 nM
[30]
  GI50: 1530 nM
  TGI: 2870 nM
[31]
  GI50: 1910 nM
  TGI: 3370 nM
[33]
  GI50: 1830 nM
  TGI: 3250 nM
[34]
  GI50: 507 nM
  TGI: 1640 nM
[35]
  GI50: 970 nM
  TGI: 2170 nM
[36]
  GI50: 1340 nM
  TGI: 2640 nM
[37]
  GI50: 2390 nM
  TGI: 3880 nM
[38]
  GI50: 1150 nM
  TGI: 2380 nM
[39]
  GI50: 1620 nM
  TGI: 2990 nM
[40]
  GI50: 1830 nM
  TGI: 3250 nM
[41]
  GI50: 1810 nM
  TGI: 3220 nM
[42]
  GI50: 1950 nM
  TGI: 3390 nM
[43]
  GI50: 1750 nM
  TGI: 3180 nM
[59]
  GI50: 1740 nM
  TGI: 3130 nM
[44]
  GI50: 1650 nM
  TGI: 3020 nM
[45]
  GI50: 1500 nM
  TGI: 2850 nM
[46]
  GI50: 1410 nM
  TGI: 2730 nM
[47]
  GI50: 1880 nM
  TGI: 3300 nM
[60]
  GI50: 1460 nM
  TGI: 2790 nM
[48]
  GI50: 1470 nM
  TGI: 2890 nM
[49]
  GI50: 1240 nM
  TGI: 2520 nM
[50]
  GI50: 1270 nM
  TGI: 2550 nM
[51]
  GI50: 1570 nM
  TGI: 2950 nM
[52]
  GI50: 1770 nM
  TGI: 3170 nM
[53]
  GI50: 1820 nM
  TGI: 3240 nM
[54]
  GI50: 1560 nM
  TGI: 2910 nM
[55]
  GI50: 1820 nM
  TGI: 3240 nM
[56]
  GI50: 1710 nM
  TGI: 3100 nM
